{"source": "patent US20130331400A1", "about": "“METHOD FOR PRODUCING INDIGO-PLANT LEAF EXTRACT” (SUNSTAR INC.,, priority 2011, published 2013)", "origin": "cited, not measured here", "key": {"[1]": {"settings": "general statement in background art"}, "[2]": {"system": "type IV allergic reactions", "settings": "reported in PTL 2"}, "[3]": {"system": "fungi of the genus Malassezia", "settings": "reported in PTL 1"}}}
{"molecule": "O=C1c2ccccc2-n2c1nc1ccccc1c2=O", "note": "[tryptanthrin]", "values": [{"measurement": "Light stability of tryptanthrin (in words)", "setting": "[1]", "result": "poor light stability"}, {"measurement": "Effect on type IV allergic reactions (in words)", "setting": "[2]", "result": "effect of suppressing type IV allergic reactions"}, {"measurement": "Antibacterial action against fungi of the genus Malassezia (in words)", "setting": "[3]", "result": "has an antibacterial action against fungi of the genus Malassezia"}]}
